Laboratory results from patent US8609616B2, “Strontium-containing compounds for use in the prevention or treatment of necrotic bone conditions” (Osteologix A/S, priority 2004, dated 2013).

System: animal model of osteonecrosis
Assay: Effect of strontium malonate in an animal model of osteonecrosis (necrotic bone graft in titanium chamber, histology)
Format: in vivo, rat
Settings: male Sprague-Dawley rats, necrotic bone graft in tibia, 1.6 g/l in drinking water ad libitum (approx. 120 mg strontium malonate/day), 6 weeks; mean (±SD); p=0.038 vs calcium malonate control 2.24 (±1.00)
Source text: The rationale for the study was to assess the ability of strontium to act as a therapeutic and bone growth promoting (i.e. pro-anabolic) agent in an animal model of osteonecrosis. […] The necrotic graft was degraded, while ingrowth of new bone occurred. At termination of the experiment, the structural grafts was removed and analyzed by histology to quantify both the degradation of the necrotic graft as well as ingrowth of new bone. Concomitant treatment with anabolic and/or anti-resorptive agents may be given after the insertion of the necrotic graft, and the effect monitored after termination of the experiment. This rat model has previously been described (Astrand J, Aspenberg P. BMC Musculoskelet Disord. 2002; 3(1):19).
The salts were prepared in a solution of 1.6 g/l, which is close to saturation (22-25° C.). Thus extensive stirring was required to completely dissolve the substances. A new batch of drinking water was prepared fresh every week for the duration of the experiment. When not in use the solution was stored at room temperature in a closed container. […]
After careful removal from the titanium chamber, the grafts were decalcified in 10% formic acid, 2% formaldehyde for 14 days. […] Each section was subsequently stained with hematoxylin and eosin, and visually scored for appearance of degradation of the necrotic graft as well as ingrowth of new bone.

## O=C([O-])CC(=O)[O-].[Sr+2] [strontium malonate]
  average ingrowth of new bone (ingrowth distance): 3.43 (±1.35 (SD)) mm
